Activity calls are given as the source filed them.
What was measured:
HEK293 = assay: inhibitors of LMP1-driven NF-kB reporter, dose response, cell-based, HEK293, luciferase, cherry-pick (AID 588343); type: functional; details: Homo sapiens
[1] = MC4R antagonists, dose response, counter-screen for LGR2 antagonist project, cell-based, plate reader, cherry pick (AID 743444); type: functional;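 further: transfected HEK 293 cells stimulated with alpha-MSH peptide; potency of inhibitors of the alpha-MSH evoked signal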
[2] = LGR2 antagonists, dose response, cell-based, HEK293, CRE-luciferase reporter, cherry pick, set 2 (AID 743343); type: functional;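 further: transfected cells were stimulated with diluted bursicon conditioned medium after compound addition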
[3] = A549 cell cytotoxicity, dose response, cytotoxicity control, plate reader, cherry-pick, antagonist series (AID 743412); type: functional, cell-based
Beta-galactosidase = Beta-galactosidase (Escherichia coli, UniProt Q8VNN2); assay: Dose response counterscreen for EBI2 assay utilizing the enzyme, b-galactosidase.; type: functional
[4] = target: T1, Sentrin-specific protease 8 (Homo sapiens, UniProt Q96LD8); type: functional
T1 sequence (Q96LD8 whole entry): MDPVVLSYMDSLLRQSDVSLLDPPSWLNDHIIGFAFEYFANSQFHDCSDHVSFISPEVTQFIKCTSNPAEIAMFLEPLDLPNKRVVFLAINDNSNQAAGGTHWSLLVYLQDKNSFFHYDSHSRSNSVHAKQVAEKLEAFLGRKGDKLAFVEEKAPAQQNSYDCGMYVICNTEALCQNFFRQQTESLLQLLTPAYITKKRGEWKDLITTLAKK

Protein RecA = target: T2, Protein RecA (Mycobacterium tuberculosis, UniProt P9WHJ3); assay: Fluorescence Cell-Free Homogeneous Dose Retest to Identify Inhibitors of RecA-Intein Splicing Activity. [Related pubchem assays (depositor defined):AID2097, AID2223, AID489010, AID492950]; type: functional
T2 sequence (P9WHJ3 whole entry): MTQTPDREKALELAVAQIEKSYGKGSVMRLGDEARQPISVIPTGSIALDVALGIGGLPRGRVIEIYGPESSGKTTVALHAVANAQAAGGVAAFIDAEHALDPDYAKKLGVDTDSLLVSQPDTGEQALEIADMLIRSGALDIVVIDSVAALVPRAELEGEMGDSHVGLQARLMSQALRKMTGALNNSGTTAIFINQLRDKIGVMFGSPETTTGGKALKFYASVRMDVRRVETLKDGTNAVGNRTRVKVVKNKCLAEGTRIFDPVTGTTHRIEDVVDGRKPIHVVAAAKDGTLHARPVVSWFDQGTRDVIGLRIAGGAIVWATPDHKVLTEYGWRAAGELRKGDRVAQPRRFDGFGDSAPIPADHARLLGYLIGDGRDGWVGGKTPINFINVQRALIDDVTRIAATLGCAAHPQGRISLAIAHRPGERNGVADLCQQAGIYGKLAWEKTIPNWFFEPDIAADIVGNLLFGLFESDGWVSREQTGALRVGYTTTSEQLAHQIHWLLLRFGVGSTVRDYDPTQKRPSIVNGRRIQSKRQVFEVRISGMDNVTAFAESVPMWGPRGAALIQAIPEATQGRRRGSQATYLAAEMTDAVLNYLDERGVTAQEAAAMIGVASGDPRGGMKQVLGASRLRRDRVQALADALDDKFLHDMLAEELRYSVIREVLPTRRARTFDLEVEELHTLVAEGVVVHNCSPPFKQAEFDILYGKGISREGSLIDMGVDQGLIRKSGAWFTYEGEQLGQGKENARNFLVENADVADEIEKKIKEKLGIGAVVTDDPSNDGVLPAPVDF

[5] = target: T3, Replicative DNA helicase DnaB (Mycobacterium tuberculosis, UniProt P9WMR3); assay: DnaB intein splicing inhibitors, dose response, biochemical, cell-free fluorescence (AID 449749); type: functional
T3 sequence (P9WMR3 whole entry): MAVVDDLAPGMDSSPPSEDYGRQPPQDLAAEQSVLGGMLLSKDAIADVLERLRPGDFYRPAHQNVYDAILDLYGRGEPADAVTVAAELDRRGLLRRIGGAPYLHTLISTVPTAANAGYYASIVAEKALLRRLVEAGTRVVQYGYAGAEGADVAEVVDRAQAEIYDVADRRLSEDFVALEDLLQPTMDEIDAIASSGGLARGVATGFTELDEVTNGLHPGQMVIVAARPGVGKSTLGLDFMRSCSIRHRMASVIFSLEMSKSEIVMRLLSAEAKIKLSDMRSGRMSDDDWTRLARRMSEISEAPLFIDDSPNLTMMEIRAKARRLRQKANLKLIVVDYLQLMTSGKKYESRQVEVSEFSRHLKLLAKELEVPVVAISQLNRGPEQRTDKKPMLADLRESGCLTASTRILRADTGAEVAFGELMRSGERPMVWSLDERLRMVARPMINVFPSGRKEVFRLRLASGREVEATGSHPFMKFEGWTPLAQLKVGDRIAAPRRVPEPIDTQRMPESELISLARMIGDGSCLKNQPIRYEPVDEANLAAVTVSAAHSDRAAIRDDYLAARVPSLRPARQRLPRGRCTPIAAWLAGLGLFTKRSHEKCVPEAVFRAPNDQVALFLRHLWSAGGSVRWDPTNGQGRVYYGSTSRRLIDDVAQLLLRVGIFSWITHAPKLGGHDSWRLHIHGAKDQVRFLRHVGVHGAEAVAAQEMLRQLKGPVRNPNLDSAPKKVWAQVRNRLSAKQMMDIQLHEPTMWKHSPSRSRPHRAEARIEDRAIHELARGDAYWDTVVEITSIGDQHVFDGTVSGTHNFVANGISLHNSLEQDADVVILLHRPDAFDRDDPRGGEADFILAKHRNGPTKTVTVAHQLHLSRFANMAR

[6] = target: T1, Sentrin-specific protease 8; type: functional; remark: listed apart in the source
[7] = target: T4, Histone-lysine N-methyltransferase NSD2 (Homo sapiens, UniProt O96028); type: biochemical
T4 sequence (O96028 whole entry): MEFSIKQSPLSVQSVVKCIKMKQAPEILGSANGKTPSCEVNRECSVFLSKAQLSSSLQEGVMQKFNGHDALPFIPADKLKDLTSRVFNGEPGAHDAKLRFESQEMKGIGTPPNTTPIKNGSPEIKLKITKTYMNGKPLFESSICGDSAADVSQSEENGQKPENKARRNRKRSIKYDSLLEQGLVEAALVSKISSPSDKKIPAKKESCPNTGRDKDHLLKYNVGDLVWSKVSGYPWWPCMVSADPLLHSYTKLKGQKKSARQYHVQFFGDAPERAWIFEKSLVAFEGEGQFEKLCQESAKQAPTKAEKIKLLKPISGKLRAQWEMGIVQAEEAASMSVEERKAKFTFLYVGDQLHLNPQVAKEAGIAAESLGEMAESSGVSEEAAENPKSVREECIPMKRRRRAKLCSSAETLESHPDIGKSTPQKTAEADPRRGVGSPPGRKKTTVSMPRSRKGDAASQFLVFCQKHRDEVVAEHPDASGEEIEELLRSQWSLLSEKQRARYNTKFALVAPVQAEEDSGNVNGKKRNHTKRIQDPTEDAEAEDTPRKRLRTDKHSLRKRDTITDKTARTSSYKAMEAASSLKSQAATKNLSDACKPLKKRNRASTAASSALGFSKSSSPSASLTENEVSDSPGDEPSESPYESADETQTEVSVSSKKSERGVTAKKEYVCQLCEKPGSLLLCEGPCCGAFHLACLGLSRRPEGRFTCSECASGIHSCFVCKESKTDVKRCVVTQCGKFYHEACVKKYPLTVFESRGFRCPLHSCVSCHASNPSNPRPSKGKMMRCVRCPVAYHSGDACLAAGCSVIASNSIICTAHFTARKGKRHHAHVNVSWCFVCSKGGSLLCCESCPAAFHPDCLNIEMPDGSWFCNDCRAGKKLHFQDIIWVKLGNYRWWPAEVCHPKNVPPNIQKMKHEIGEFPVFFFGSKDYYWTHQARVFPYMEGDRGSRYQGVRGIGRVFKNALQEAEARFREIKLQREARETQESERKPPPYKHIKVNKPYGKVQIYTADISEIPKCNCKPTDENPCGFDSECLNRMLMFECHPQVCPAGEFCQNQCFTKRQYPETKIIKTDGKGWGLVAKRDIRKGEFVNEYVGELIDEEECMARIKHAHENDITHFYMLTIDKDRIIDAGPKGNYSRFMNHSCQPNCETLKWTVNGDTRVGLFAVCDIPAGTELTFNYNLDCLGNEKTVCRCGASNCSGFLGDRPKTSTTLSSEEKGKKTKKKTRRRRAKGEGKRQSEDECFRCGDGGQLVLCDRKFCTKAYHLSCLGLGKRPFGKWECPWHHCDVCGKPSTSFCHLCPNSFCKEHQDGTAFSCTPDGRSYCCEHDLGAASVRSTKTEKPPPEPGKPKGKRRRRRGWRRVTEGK

[8] = Luminescence Cell-Based Dose Response HTS to Identify Inhibitors of 5'UTR Stem-Loop Driven Prion Protein mRNA Translation in H4 Neuroglioblastoma Cells. [Related pubchem assays: 1827 (Project Summary), 1813 (Primary HTS)]; type: functional
BJ [9] = assay: cytotoxicity toward BJ-TERT-LT-ST fibroblasts, dose response, cell-based, RAS-independent, luminescence (AID 1935); type: functional; details: Homo sapiens;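 further: BJ fibroblasts immortalized with TERT plus LT and ST oncogenes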
[10] = inhibitors of SNCA 5'UTR-driven reporter translation, confirmation, H4 neuroglioma cells, luminescence (AID 1988); type: functional, cell-based
[11] = cytotoxicity toward DRD oncogenic fibroblasts, dose response, cell-based, non-viral oncogenic, luminescence (AID 1934); type: functional; details: Homo sapiens
BJ [12] = assay: cytotoxicity toward BJ-TERT fibroblasts, dose response, cell-based, RAS-independent, luminescence (AID 1933); type: functional; details: Homo sapiens
BJ [13] = assay: cells; type: functional, cell-based; details: Homo sapiens
[14] = inhibitors of firefly luciferase expression or activity, dose response, H4 neuroglioma cells, luminescence (AID 1990); type: functional, cell-based

Chain of Beta-galactosidase (Q8VNN2 whole entry): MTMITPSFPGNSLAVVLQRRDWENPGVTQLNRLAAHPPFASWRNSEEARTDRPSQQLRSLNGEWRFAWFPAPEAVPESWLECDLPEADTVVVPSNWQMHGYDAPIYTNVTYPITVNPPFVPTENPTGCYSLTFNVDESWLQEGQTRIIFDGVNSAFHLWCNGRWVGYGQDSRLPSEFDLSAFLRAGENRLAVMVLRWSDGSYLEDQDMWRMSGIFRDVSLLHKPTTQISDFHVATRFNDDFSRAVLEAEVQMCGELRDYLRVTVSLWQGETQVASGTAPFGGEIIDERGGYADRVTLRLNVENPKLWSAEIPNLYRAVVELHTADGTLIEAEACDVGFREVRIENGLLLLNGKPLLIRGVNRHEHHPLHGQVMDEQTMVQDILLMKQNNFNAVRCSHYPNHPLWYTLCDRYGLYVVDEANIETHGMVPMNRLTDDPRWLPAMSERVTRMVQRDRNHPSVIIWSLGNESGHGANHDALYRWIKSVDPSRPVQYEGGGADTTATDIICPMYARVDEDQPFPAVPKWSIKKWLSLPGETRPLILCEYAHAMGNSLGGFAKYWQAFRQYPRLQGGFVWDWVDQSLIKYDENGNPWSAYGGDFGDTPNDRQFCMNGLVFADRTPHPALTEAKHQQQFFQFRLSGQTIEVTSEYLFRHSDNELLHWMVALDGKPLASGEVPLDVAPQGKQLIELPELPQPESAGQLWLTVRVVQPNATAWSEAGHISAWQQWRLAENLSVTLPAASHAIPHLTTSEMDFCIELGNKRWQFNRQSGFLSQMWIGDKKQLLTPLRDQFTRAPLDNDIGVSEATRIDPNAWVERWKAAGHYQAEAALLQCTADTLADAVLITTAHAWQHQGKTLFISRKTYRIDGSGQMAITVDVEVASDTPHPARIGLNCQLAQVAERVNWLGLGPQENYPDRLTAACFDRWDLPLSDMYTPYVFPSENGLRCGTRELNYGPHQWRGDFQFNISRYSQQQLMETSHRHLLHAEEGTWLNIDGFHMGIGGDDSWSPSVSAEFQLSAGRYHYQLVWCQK

**Q.** Which results are given for `COc1ccc(-n2cc(C(=O)c3ccccc3O)cn2)cc1`?
**A.** AC50 (HEK293): 2.43 µM (active); AC50 [1]: 10.7 µM (active); AC50 [2]: 8.21 µM (active); AC50 [3]: > 52 µM (inactive)

**Q.** Which IC50 (Beta-galactosidase) does the source give for `O=C(COc1ccc(Cl)cc1)N1CCN(S(=O)(=O)c2ccc(Cl)cc2)CC1` here?
**A.** > 80 µM (inactive)

**Q.** For `O=C(c1ccco1)N1CCN(C(=O)c2cc3c(s2)-c2ccccc2OC3)CC1`, which IC50 (Beta-galactosidase) is on record?
**A.** > 80 µM (inactive)

**Q.** Which IC50 (Beta-galactosidase) does the source give for `N#CC(=C1CCCC1)c1nc(-c2ccc(Cl)cc2)cs1` here?
**A.** > 80 µM (inactive)

**Q.** Which IC50 [4] does the source give for `Cc1[nH][nH]c(=O)c1C(c1ccc(-c2ccc(Cl)c(Cl)c2)o1)c1c(C)[nH][nH]c1=O` here?
**A.** 8.73 µM (active)

**Q.** And the EC50 (Protein RecA)?
**A.** 0.305 µM (active)

**Q.** And the AC50 [5]?
**A.** 0.281 µM (active)

**Q.** What about the IC50 [6] of the same molecule?
**A.** 18.8 µM (active)

**Q.** For `COc1ccc(-c2ccc(C(c3c(C)n[nH]c3O)c3c(C)n[nH]c3O)o2)c([N+](=O)[O-])c1`, which IC50 [4] is on record?
**A.** 15.6 µM (active)

**Q.** What about the AC50 [7] of the same molecule?
**A.** > 20 µM (inactive)

**Q.** And the IC50 [6]?
**A.** 28.7 µM (active)

**Q.** With `COc1ccccc1N1CCN(C(=O)c2ccc3[nH]c(C)c(C)c3c2)CC1` as the molecule, how does the EC50 [8] read?
**A.** 2.14 µM (active)

**Q.** What about the IC50 (Beta-galactosidase) of the same molecule?
**A.** > 80 µM (inactive)

**Q.** And the EC50 (BJ [9])?
**A.** 2.22 µM (inconclusive)

**Q.** And the EC50 [10]?
**A.** 0.19 µM (active)

**Q.** What about the EC50 [11] of the same molecule?
**A.** 2.4 µM (active)

**Q.** What about the EC50 (BJ [12]) of the same molecule?
**A.** 2.61 µM (active)

**Q.** What about the EC50 (BJ [13]) of the same molecule?
**A.** 68.5 µM (active)

**Q.** And the EC50 [14]?
**A.** 3.53 µM (active)

Source: ChEMBL document CHEMBL1201862, “PubChem BioAssay data set” (2004)
